Data as given in US20240101576A1, “HETEROCYCLIC INHIBITORS OF EGFR AND/OR HER2, FOR USE IN THE TREATMENT OF CANCER” (Scorpion Therapeutics, Inc., priority 2020, published 2024).

Legend:
Type in all cases: cell-based
[1] = target: T1, EGFR L858R/C797S (Ba/F3 cells) (Homo sapiens, UniProt P00533, C797S/L858R); test: Inhibitor activity on EGFR phosphorylation (pEGFR AlphaLISA, 2 h), Ba/F3 EGFR L858R/C797S
T1 construct: expressed in transfected cells; host or cells: Ba/F3 (murine pro-B cells), retroviral transduction, puromycin selection, IL3-independent pool
How it was run: (§1)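 IC50 values reflect inhibition of cellular EGFR phosphorylation, measured by AlphaLISA in lysates. Engineered Ba/F3 pools expressing mutant EGFR, selected with puromycin and cultured IL3-free, or CUTO14 cells, were exposed to compound for 2 hours.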

[2] = target: T1, EGFR L858R/C797S (Ba/F3 cells); test: Inhibitor activity on EGFR-dependent cell growth (CellTiter-Glo, 72 h), Ba/F3 EGFR L858R/C797S; conditions: read-out: BaF3 L858R/C797S IC50
How it was run: (§2)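 Mutant EGFR drives IL3-independent growth of engineered Ba/F3 pools. L858R cells go in at 400/well, L858R/C797S at 600, and exon 19del or FQEA insertion at 800. After 72 h with compound, plates are equilibrated 15 min at RT. Reagent is added 1:1, followed by 30 min and a luminescence read.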

[3] = target: T2, EGFR exon 20 ASV Ins V769_D770 (Ba/F3 cells) (Homo sapiens, UniProt P00533, INS769ASV); test: Inhibitor activity on EGFR phosphorylation (pEGFR AlphaLISA, 2 h), Ba/F3 EGFR exon 20 ASV Ins; conditions: EGFR phosphorylation, AlphaLISA, 2 hours; read-out: ASV IC50 (pEGFR)
T2 construct: expressed in transfected cells; host or cells: Ba/F3 (murine pro-B cells), retroviral transduction, puromycin selection, IL3-independent pool
How it was run: as §1

[4] = target: T3, EGFR exon 20 NPG Ins D770_N771 (Ba/F3 cells) (Homo sapiens, UniProt P00533, INS770NPG); test: Inhibitor activity on EGFR phosphorylation (pEGFR AlphaLISA, 2 h), Ba/F3 EGFR exon 20 NPG Ins
T3 construct: expressed in transfected cells; host or cells: Ba/F3 (murine pro-B cells), retroviral transduction, puromycin selection, IL3-independent pool
How it was run: as §1

[5] = target: T4, EGFR exon 19del (Ba/F3 cells) (Homo sapiens, UniProt P00533); test: Inhibitor activity on EGFR-dependent cell growth (CellTiter-Glo, 72 h), Ba/F3 EGFR exon 19del; conditions: Ba/F3 EGFR exon 19del cell growth, read-out: BaF3 Del19 IC50
How it was run: as §2

EGFR (CUTO14 cells) = EGFR (CUTO14 cells) (Homo sapiens, UniProt P00533); test: Inhibitor activity on EGFR phosphorylation (pEGFR AlphaLISA, 2 h), CUTO14 cells
How it was run: as §1

[6] = target: T5, EGFR exon 20 SVD Ins D770_N771 (Ba/F3 cells) (Homo sapiens, UniProt P00533, INS770SVD); test: Inhibitor activity on EGFR phosphorylation (pEGFR AlphaLISA, 2 h), Ba/F3 EGFR exon 20 SVD Ins
T5 construct: expressed in transfected cells; host or cells: Ba/F3 (murine pro-B cells), retroviral transduction, puromycin selection, IL3-independent pool
Description: Example B. Inhibitor Activity on EGFR phosphorylation (pEGFR)
EGFR mutant Ba/F3 cells were generated by transduction with retrovirus containing vectors expressing EGFR L858R, EGFR exon 19del, EGFR L858R/C797S, EGFR exon 20 NPG Ins D770_N771, EGFR exon 20 ASV Ins V769_D770, or EGFR exon 20 SVD Ins D770_N771 genes along with a puromycin selection marker. Transduced cells are selected with puromycin for 7 days and are then be transferred into culture media without Interleukin 3 (IL3). Surviving cells are confirmed to express EGFR by Western blot and maintained as a pool. CUTO14 cells were obtained from Dr. Robert C. Doebele at the University of Colorado. The IC50 date are included in Table 6 and Table 7.
1.1 Cells are harvested from flask into cell culture medium and the cell number counted.
1.2 Cells are diluted with culture medium to the desired density and 40 μL of cell suspension is added into each well of 384-well cell culture plate and the seeding density is 50K cells/well (Ba/F3) or 12.5K cells/well (CUTO14).
2 Compound Preparation and Treatment
2.1 Test compounds are dissolved to 10 mM in a DMSO stock solution. 45 μL of stock solution is transferred to a 384 polypropylene plate (pp-plate). Perform 3-fold, 10-point dilution via transferring 15 μL compound into 30 μL DMSO using a TECAN (EVO200) liquid handler.
2.2 Spin plates at room temperature at 1,000 RPM for 1 minute.
2.3 Transfer 5 nL of diluted compound from compound source plate into the cell plate.
2.4 After compound treatment for 2 hours, perform pEGFR detection by AlphaLISA for compound treatment plates as described in “Detection” section.
3 Detection by pEGFR AlphaLISA (Perkin-Elmer)
3.1 Plates are removed from incubators and equilibrated at room temperature for 10 minutes, and media was removed
3.2 10 μL of lysis buffer is added and plates shaken at 600 rpm for 1 hr.
3.3 Prepare acceptor mix just before use and dispense 5 μL of acceptor mix to all the wells. Shake 350 rpm for Ihr in the dark
3.4 Prepare donor mix under low light conditions prior to use. Dispense 5 μL of donor mix to all the wells. Mix well on the shaker, seal and wrap in aluminum foil and incubate 1.5 hrs at room temperature in the dark
3.5 Transfer 18.5 μL mixture to OptiPlate 384, and read using an Envision. The IC50 date were included in Table 6 and Table 7.

EGFR L858R (Ba/F3 cells) [7] = target: T6, EGFR L858R (Ba/F3 cells) (Homo sapiens, UniProt P00533, L858R); test: Inhibitor activity on EGFR phosphorylation (pEGFR AlphaLISA, 2 h), Ba/F3 EGFR L858R
T6 construct: expressed in transfected cells; host or cells: Ba/F3 (murine pro-B cells), retroviral transduction, puromycin selection, IL3-independent pool
How it was run: as §1

EGFR WT (Ba/F3 cells) = target: T7, EGFR WT (Ba/F3 cells) (Homo sapiens, UniProt P00533); test: Inhibitor activity on EGFR-dependent cell growth (CellTiter-Glo, 72 h), Ba/F3 EGFR WT; conditions: read-out: BaF3 WT IC50
T7 construct: expressed in transfected cells; host or cells: Ba/F3 (murine pro-B cells), retroviral transduction, puromycin selection, maintained with EGF
How it was run: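 This growth assay used Ba/F3 cells that depend on wild-type EGFR and are kept in EGF without IL3. Compounds were made up as 10 mM DMSO stocks and diluted 3-fold over 10 points. 120 nL went onto 600 cells/well. After 72 hours, 40 μL CellTiter-Glo was added and luminescence read on EnVision after 30 min.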

[8] = target: T4, EGFR exon 19del (Ba/F3 cells); test: Inhibitor activity on EGFR phosphorylation (pEGFR AlphaLISA, 2 h), Ba/F3 EGFR exon 19del; conditions: read-out: Del19 IC50 (pEGFR)
How it was run: as §1

[9] = target: T8, EGFR exon 20 FQEA Ins A763_V764 (Ba/F3 cells) (Homo sapiens, UniProt P00533, INS763FQEA); test: Inhibitor activity on EGFR-dependent cell growth (CellTiter-Glo, 72 h), Ba/F3 EGFR exon 20 FQEA Ins; conditions: read-out: BaF3 FQEA IC50
T8 construct: expressed in transfected cells; host or cells: Ba/F3 (murine pro-B cells), retroviral transduction, puromycin selection, IL3-independent pool
How it was run: as §2

[10] = target: T3, EGFR exon 20 NPG Ins D770_N771 (Ba/F3 cells); test: Inhibitor activity on EGFR-dependent cell growth (CellTiter-Glo, 72 h), Ba/F3 EGFR exon 20 NPG Ins; conditions: read-out: BaF3 NPG IC50
How it was run: (§3)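 IC50s derive from a sigmoidal dose–response fit of CellTiter-Glo signal. The signal was normalised between […]-treated cells and cell-free medium. Ba/F3 mutant-EGFR cells, seeded at 400–800/well depending on the line, had 72 h of exposure to a 10-point, 3-fold compound series.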

EGFR L858R (Ba/F3 cells) [11] = target: T6, EGFR L858R (Ba/F3 cells); test: Inhibitor activity on EGFR-dependent cell growth (CellTiter-Glo, 72 h), Ba/F3 EGFR L858R; conditions: read-out: BaF3 L858R IC50
How it was run: as §2

[12] = target: T5, EGFR exon 20 SVD Ins D770_N771 (Ba/F3 cells); test: Inhibitor activity on EGFR-dependent cell growth (CellTiter-Glo, 72 h), Ba/F3 EGFR exon 20 SVD Ins; conditions: read-out: BaF3 SVD IC50
How it was run: as §3

[13] = target: T2, EGFR exon 20 ASV Ins V769_D770 (Ba/F3 cells); test: Inhibitor activity on EGFR-dependent cell growth (CellTiter-Glo, 72 h), Ba/F3 EGFR exon 20 ASV Ins; conditions: read-out: BaF3 ASV IC50
How it was run: as §3

T2 sequence (P00533 with tags, fused parts or gaps INS769ASV): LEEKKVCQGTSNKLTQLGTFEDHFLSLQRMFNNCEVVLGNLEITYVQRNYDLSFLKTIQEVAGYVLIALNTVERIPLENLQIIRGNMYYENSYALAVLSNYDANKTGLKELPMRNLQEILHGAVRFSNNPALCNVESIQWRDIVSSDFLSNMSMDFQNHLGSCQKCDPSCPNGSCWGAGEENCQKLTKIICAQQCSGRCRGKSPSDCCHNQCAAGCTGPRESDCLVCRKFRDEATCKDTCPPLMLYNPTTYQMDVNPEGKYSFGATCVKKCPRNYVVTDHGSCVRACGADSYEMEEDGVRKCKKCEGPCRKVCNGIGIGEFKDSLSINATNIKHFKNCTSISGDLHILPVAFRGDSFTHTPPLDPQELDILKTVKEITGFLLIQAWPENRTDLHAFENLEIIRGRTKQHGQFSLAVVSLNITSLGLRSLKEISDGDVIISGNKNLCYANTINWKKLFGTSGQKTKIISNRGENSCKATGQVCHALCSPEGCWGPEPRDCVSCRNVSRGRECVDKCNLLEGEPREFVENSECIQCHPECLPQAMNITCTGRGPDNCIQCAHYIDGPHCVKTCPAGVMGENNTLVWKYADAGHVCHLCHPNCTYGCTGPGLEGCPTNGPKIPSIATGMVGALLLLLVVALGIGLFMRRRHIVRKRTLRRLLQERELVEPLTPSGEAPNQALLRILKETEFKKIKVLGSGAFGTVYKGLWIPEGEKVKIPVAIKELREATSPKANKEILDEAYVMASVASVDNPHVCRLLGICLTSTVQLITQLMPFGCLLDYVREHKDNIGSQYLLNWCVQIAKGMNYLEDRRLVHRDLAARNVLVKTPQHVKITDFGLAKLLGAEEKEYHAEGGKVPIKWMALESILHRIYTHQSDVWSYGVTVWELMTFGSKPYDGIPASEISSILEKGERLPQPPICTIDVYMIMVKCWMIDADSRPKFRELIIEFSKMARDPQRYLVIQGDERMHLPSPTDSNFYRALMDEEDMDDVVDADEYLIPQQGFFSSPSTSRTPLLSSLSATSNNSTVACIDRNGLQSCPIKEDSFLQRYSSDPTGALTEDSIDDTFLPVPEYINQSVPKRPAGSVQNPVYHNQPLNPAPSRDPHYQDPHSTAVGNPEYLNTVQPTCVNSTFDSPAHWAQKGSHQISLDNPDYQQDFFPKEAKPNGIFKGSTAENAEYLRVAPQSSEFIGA
T6 sequence (P00533 25-1210 L858R): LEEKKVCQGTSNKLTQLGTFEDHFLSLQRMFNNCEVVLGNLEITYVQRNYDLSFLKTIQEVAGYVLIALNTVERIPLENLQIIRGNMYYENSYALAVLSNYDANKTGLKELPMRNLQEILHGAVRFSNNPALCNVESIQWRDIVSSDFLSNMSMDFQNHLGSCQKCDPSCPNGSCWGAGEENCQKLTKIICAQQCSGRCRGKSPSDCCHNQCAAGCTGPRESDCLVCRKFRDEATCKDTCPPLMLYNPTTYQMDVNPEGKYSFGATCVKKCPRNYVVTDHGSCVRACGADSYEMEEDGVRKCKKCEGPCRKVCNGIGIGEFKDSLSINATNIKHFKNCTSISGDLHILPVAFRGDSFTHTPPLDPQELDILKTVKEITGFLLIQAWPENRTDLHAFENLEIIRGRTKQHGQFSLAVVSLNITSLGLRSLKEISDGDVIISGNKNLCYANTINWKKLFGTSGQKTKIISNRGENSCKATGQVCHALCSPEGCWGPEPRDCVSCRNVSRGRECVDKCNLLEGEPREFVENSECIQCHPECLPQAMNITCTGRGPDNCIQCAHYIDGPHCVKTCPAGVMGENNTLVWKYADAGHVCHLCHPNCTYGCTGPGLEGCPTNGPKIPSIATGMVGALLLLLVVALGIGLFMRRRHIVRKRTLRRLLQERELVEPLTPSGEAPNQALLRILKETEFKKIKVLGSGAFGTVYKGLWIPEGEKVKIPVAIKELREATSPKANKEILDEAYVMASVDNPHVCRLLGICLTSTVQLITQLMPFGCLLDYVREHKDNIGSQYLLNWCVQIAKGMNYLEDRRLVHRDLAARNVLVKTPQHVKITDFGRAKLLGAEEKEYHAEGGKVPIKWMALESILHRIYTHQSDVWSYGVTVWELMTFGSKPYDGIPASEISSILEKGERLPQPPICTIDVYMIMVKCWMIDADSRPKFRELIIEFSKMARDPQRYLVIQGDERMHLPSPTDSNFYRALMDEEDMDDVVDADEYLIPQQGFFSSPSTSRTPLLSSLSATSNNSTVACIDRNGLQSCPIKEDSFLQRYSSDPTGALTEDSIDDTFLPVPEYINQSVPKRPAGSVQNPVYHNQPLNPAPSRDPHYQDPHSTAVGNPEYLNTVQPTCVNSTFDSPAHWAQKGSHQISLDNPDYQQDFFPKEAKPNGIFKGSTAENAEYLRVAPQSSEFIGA
T1 sequence (P00533 25-1210 C797S/L858R): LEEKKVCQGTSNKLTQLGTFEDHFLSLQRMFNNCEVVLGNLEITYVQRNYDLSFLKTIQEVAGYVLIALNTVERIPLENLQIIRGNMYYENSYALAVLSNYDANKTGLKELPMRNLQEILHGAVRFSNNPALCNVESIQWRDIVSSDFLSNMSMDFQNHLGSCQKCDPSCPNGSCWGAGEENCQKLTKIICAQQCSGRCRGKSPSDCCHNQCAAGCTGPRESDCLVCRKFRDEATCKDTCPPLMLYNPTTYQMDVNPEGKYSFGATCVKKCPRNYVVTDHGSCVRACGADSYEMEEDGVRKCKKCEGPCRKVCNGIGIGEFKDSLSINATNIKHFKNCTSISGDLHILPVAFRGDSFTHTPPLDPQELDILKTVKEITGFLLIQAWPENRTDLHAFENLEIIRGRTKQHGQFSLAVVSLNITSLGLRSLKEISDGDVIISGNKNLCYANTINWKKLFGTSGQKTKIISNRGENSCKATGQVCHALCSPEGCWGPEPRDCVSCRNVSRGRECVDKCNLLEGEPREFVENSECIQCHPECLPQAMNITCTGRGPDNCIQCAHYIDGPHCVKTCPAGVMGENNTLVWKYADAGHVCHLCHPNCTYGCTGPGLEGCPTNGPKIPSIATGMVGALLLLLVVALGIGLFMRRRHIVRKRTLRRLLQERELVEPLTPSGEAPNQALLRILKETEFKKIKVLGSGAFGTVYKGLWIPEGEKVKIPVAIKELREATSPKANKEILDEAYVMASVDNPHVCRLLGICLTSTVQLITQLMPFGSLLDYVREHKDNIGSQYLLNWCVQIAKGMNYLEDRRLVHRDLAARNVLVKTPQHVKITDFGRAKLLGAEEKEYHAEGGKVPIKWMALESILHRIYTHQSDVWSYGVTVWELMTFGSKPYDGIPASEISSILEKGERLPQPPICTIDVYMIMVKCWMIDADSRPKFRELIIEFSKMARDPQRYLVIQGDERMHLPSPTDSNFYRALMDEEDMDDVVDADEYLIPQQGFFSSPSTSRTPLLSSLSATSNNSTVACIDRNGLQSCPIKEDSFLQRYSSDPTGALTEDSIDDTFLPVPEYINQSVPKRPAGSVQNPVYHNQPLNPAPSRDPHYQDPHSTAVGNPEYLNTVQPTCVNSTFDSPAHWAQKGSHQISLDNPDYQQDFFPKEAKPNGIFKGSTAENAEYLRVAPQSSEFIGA
T8 sequence (P00533 with tags, fused parts or gaps INS763FQEA): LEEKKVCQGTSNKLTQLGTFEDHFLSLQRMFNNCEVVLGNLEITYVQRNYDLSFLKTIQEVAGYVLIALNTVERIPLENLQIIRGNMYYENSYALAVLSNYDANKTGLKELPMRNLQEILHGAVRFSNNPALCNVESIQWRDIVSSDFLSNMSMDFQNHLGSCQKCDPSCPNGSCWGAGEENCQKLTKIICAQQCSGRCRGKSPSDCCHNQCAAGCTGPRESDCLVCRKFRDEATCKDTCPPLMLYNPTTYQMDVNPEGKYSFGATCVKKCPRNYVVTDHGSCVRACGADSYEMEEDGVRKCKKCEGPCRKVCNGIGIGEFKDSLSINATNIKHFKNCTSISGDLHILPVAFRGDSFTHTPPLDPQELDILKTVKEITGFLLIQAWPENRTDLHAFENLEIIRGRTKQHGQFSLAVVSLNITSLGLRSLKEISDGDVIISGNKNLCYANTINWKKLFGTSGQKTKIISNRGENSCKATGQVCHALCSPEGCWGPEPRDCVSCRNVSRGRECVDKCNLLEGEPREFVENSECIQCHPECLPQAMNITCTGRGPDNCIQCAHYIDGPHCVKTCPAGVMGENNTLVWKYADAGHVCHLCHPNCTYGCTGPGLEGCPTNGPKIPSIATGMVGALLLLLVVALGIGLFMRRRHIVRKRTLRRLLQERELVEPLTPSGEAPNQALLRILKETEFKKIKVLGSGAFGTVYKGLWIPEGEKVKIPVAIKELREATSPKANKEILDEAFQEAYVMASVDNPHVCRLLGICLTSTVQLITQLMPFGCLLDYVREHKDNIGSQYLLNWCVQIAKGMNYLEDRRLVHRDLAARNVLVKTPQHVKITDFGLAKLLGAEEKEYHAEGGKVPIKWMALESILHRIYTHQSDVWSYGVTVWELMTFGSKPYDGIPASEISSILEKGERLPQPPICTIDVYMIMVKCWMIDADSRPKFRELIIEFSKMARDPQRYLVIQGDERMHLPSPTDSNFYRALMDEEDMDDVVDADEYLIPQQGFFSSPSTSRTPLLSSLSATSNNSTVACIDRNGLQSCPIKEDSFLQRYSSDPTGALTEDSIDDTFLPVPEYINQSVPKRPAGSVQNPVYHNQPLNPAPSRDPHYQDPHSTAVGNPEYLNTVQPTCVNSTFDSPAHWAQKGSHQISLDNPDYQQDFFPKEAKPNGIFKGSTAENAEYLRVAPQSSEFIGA

Row | SMILES | IC50 [1] [nM] | IC50 [2] [nM] | IC50 [3] [nM] | IC50 [4] [nM] | IC50 [5] [nM] | IC50 (EGFR (CUTO14 cells)) [nM] | IC50 [6] [nM] | IC50 (EGFR L858R (Ba/F3 cells) [7]) [nM] | IC50 (EGFR WT (Ba/F3 cells)) [nM] | IC50 [8] [nM] | IC50 [9] [nM] | IC50 [10] [nM] | IC50 (EGFR L858R (Ba/F3 cells) [11]) [nM] | IC50 [12] [nM] | IC50 [13] [nM]
1 | COCC[C@H]1CNC(=O)c2c1[nH]c(-c1ccncc1F)c2Nc1cccc(Cl)c1OC [Compound 747] | < 100 | < 100 | < 100 | < 100 | < 100 | < 100 | < 100 | < 100 | < 100 | < 100 | < 100 | < 100 | < 100 |  | 
2 | COc1c(Cl)cccc1Nc1c(-c2ccnc(Nc3ccn(CC(F)F)n3)n2)[nH]c2c1C(=O)NCC2 [compound 515, 3-[(3-chloro-2-methoxyphenyl)amino]-2-(2-{[1-(2,2-difluoroethyl)pyrazol-3-yl]amino}pyrimidin-4-yl)-1H,5H,6H,7H-pyrrolo[3,2-c]pyridin-4-one] |  |  | < 100 | < 100 | < 100 | < 100 | < 100 |  | < 100 |  | < 100 | < 100 | < 100 | < 100 | < 100
3 | COc1c(Cl)cccc1Nc1c(-c2ccnc3ccoc23)[nH]c2c1C(=O)NCC2 [compound 750, 3-[(3-chloro-2-methoxyphenyl)amino]-2-[furo[3,2-b]pyridin-7-yl]-1H,5H,6H,7H-pyrrolo[3,2-c]pyridin-4-one] | < 100 | < 100 | < 100 | < 100 | < 100 | < 100 | < 100 | < 100 | 100 to 1000 | < 100 | < 100 | < 100 | < 100 |  | 

The remaining lines, values ahead:

Row | IC50 [1] [nM] | IC50 [2] [nM] | IC50 [3] [nM] | IC50 [4] [nM] | IC50 [5] [nM] | IC50 (EGFR (CUTO14 cells)) [nM] | IC50 [6] [nM] | IC50 (EGFR L858R (Ba/F3 cells) [7]) [nM] | IC50 (EGFR WT (Ba/F3 cells)) [nM] | IC50 [8] [nM] | IC50 [9] [nM] | IC50 [10] [nM] | IC50 (EGFR L858R (Ba/F3 cells) [11]) [nM] | IC50 [12] [nM] | IC50 [13] [nM] | SMILES
4 | < 100 | < 100 | < 100 | < 100 | < 100 | < 100 | < 100 | < 100 | < 100 | < 100 | < 100 | < 100 | < 100 |  |  | COc1c(Cl)cccc1Nc1c(-c2ccncc2F)[nH]c2c1C(=O)NC[C@@H]2C[C@@H]1COCCO1 [Compound 482, (S)-7-(((R)-1,4-dioxan-2-yl)methyl)-3-((3-chloro-2-methoxyphenyl)amino)-2-(3-fluoropyridin-4-yl)-1,5,6,7-tetrahydro-4H-pyrrolo[3,2-c]pyridin-4-one]
5 |  |  | < 100 | < 100 | < 100 | < 100 | < 100 |  | 100 to 1000 |  | < 100 | < 100 | < 100 | < 100 | < 100 | COc1c(Cl)cccc1Nc1c(-c2ccnc(N)n2)[nH]c2c1C(=O)NC[C@H]2C[C@@H]1COCCO1 [Compound 567, (7R)-2-(2-aminopyrimidin-4-yl)-3-[(3-chloro-2-methoxyphenyl)amino]-7-[(2R)-1,4-dioxan-2-ylmethyl]-1H,5H,6H,7H-pyrrolo[3,2-c]pyridin-4-one]
